Measured values published in patent US20120015925A1, “NOVEL BENZOTHIAZEPINE AND BENZOTHIEPINE COMPOUNDS” (ASAHI KASEI PHARMA CORPORATION, priority 2004, published 2012).

How the values were obtained:
[1] = tested on: Wistar rats given choline-deficient food; test: Steatohepatitis model: AST and ALT in blood; type: in vivo, rat; details: 3 mg/kg oral once a day for 2 weeks, n = 4, average ± standard error; for AST: control group (n = 6) 180 ± 46; for ALT: control group (n = 6) 245 ± 57
From the text: In the present Test Example, a steatohepatitis model was employed with reference to the method of Okan A et al. (Dig. Dis. Sci., 47:2389-2397, 2002).
That is, choline-deficient food (supplied from Oriental Yeast Co., Ltd.) was given to Wistar rats at 7 weeks of age for two weeks to prepare a steatohepatitis model. The test compound was suspended in an aqueous solution of 0.5% methylcellulose (supplied from Wako Pure Chemical Industries), and the aqueous solution of 0.5% methylcellulose (supplied from Wako Pure Chemical Industries) was used as the control. They were orally administered once a day for consecutive 2 weeks. The blood was collected from the abdominal aorta on the day after the final drug administration. AST (GOT) and ALT (GPT) in the blood were measured using the measurement kits (GOT II-HA Test Wako and GPT II Test Wako, supplied from Wako Pure Chemical Industries) with an automatic analyzer (Nitech ANALAYZER SUPER Z818).

[2] = tested on: rats fed cholesterol food; test: Blood cholesterol lowering effect in rats fed cholesterol food; type: in vivo, rat; details: 0.3 mg/kg per administration, oral, twice per day; SD (IGS) male rats; serum 3 hours after final administration
Method in brief: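 SD (IGS) male rats, 7–9 weeks old, fed chow with 0.4% cholesterol and 0.5% bile acid for 5 days beforehand; only rats with clearly raised cholesterol used. Compound in distilled water given orally twice daily (n=8; vehicle controls). Serum total and HDL cholesterol measured 3 h after final dose; LDL+VLDL = total − HDL.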

KKA^y/Ta Jcl male mice = test: Obesity and fatty liver model: body weight and liver triglyceride; type: in vivo, mouse; details: Table 14-2; for BODY WEIGHT (g) BEFORE ADMINISTRATION: 1 mg/kg group, baseline, control group 44.1 ± 0.6; for BODY WEIGHT (g) DIFFERENCE / BODY WEIGHT (g) TWO WEEKS / LIVER TRIGLYCERIDE: 1 mg/kg once a day for 2 weeks; for BODY WEIGHT (g) DIFFERENCE: control group 0.7 ± 0.4; for BODY WEIGHT (g) TWO WEEKS: control group 44.8 ± 0.9; for LIVER TRIGLYCERIDE: control group 103 ± 19
Protocol: In the present Test Example, an obesity and fatty liver model was employed with reference to the method described in WO02/09757.
That is, KKA^y/Ta Jcl male mice at 10 weeks of age were used as obese mice (N=4 to 7). The test compound was dissolved or suspended in the aqueous solution of 1% HCO 60 (supplied from Nippon Chemicals). The aqueous solution of 1% HCO 60 (supplied from Nippon Chemicals) was used as the control. The consecutive administration was performed once a day for 2 weeks, and body weight was measured daily and compared with the body weight on the day before the administration. On the day after the final administration, the liver was removed, and a triglyceride concentration in liver tissue was measured using a measurement kit (Triglyceride Test Wako, supplied from Wako Pure Chemical Industries). The results are shown in the following Table 14 (Tables 14-1 to 14-3).

rats dosed cholic acid = test: Lowering effect on bile acid concentrations in portal vein blood in rats dosed cholic acid; type: in vivo, rat; details: 0.1 mg/kg oral with cholic acid 200 mg/kg; portal vein serum total bile acid 2 hours after; control = 100%; surfactant HCO-60 (##)
Method in brief: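 Fasted male SD (IGS) rats aged 7–9 weeks received oral cholic acid (200 mg/kg) plus test compound in water with 0.05% or 1% surfactant (n=6). Portal vein serum total bile acid measured 2 h post-dose; reduction rate (%) calculated against cholic acid-only controls set as 100%.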

[3] = tested on: rats with partial ligation of the bile duct dosed bile acid; test: Model for hepatic disorder associated with cholestasis (partial bile duct ligation model), Protocol A: AST, ALT, ALP; type: in vivo, rat; details: Table 12-2, 1 mg/kg in 1% HCO 60, N=3, mean±standard error; for ALT: control group 384 ± 156, sham 48 ± 5; for AST: control group 643 ± 125, sham 128 ± 18; for ALP: control group 2204 ± 327, sham 630 ± 87
From the text: In the present Test Example, a model for the hepatic disorder caused by partial ligation of the bile duct was employed with reference to Kanno's method (Liver, 43, Suppl(1):A126, 2002).
That is, to the SD (IGS) strain male rats at 7 to 10 weeks of age, the partial ligation of the bile duct was given with opening the abdominal cavity under anesthesia with pentobarbital. Before the operation, the blood was collected from femoral vein, in order to obtain the value before the administration. From the day after the operation, 200 mg/kg of bile acid and the test compound were orally administered forcibly twice per day for 3.5 days (Protocol A). Without giving the partial ligation of the bile duct, 200 mg/kg of bile acid and the test compound were also orally administered forcibly twice per day for 3.5 days (Protocol B). In both cases, the test compound was dissolved or suspended in distilled water or an aqueous solution of 1% HCO 60 (Nippon Chemicals). To the control group, saline was administered. As comparative examples, 25 mg/kg of cholestyramine (supplied from Sigma) or 50 mg/kg of ursodeoxycholic acid (supplied from Mitsubishi Pharma) was administered. For considering the effect of the operation, sham operation (sham group) was performed in some cases. The blood was collected from the abdominal aorta 6 hours after the drug administration on the final day of the experiment. AST (GOT), ALT (GPT) and ALP in the blood were measured using measurement kits (GOT II-HA Test Wako, GPT II-HA Test Wako and Alkaline Phosphor HA Test Wako, all were supplied from Wako Pure Chemical Industries) and using an automatic analyzer (Nitech ANALAYZER SUPER Z818).

## CCCCC1(CCCC)CS(=O)(=O)c2ccc(N(C)C)cc2C(c2cccc(NC(=S)Nc3ccc(C[n+]4cccc(CCCO)c4)cc3)c2)N1.[Br-] (stereo not drawn) [EXAMPLE 3747]
[1]
  AST: 63 ± 86 IU/L
  ALT: 102 ± 50 IU/L
[2]
  LDL + VLDL REDUCTION RATE (%) IN CHOLESTEROL FED RAT MODEL (THERAPEUTIC MODEL): 48%
KKA^y/Ta Jcl male mice
  BODY WEIGHT (g) BEFORE ADMINISTRATION: 44.3 ± 0.8 g
  BODY WEIGHT (g) DIFFERENCE: -2.1 ± 1.0 g
  BODY WEIGHT (g) TWO WEEKS: 42.2 ± 1.8 g
  LIVER TRIGLYCERIDE: 47 ± 23 mg/g
Rats dosed cholic acid
  BILE ACID REDUCTION RATE (%) IN RAT MODEL WITH CHOLIC ACID LOADING: 40%
[3]
  ALT: 146 ± 70 IU/L
  AST: 245 ± 81 IU/L
  ALP: 960 ± 259 IU/L

## CCCCC1(CCCC)CS(=O)(=O)c2ccc(N(C)C)cc2C(c2cccc(NC(=S)Nc3ccc(C[n+]4cccc(CCC(=O)OC)c4)cc3)c2)N1.[Br-] (stereo not drawn) [EXAMPLE 3752]
[1]
  AST: 69 ± 98 IU/L
  ALT: 88 ± 45 IU/L
[2]
  LDL + VLDL REDUCTION RATE (%) IN CHOLESTEROL FED RAT MODEL (THERAPEUTIC MODEL): 50%
KKA^y/Ta Jcl male mice
  BODY WEIGHT (g) BEFORE ADMINISTRATION: 43.8 ± 1.2 g
  BODY WEIGHT (g) DIFFERENCE: -2.3 ± 0.9 g
  BODY WEIGHT (g) TWO WEEKS: 41.5 ± 1.0 g
  LIVER TRIGLYCERIDE: 56 ± 23 mg/g
Rats dosed cholic acid
  BILE ACID REDUCTION RATE (%) IN RAT MODEL WITH CHOLIC ACID LOADING: 42%
[3]
  ALT: 165 ± 47 IU/L
  AST: 358 ± 87 IU/L
  ALP: 1112 ± 184 IU/L

## CCCCC1(CCCC)CS(=O)(=O)c2ccc(N(C)C)cc2C(c2cccc(NC(=S)Nc3ccc(C[n+]4ccccc4CCC)cc3)c2)N1.[Br-] (stereo not drawn) [EXAMPLE 5408]
[1]
  AST: 103 ± 45 IU/L
  ALT: 149 ± 38 IU/L
[2]
  LDL + VLDL REDUCTION RATE (%) IN CHOLESTEROL FED RAT MODEL (THERAPEUTIC MODEL): 43%
KKA^y/Ta Jcl male mice
  BODY WEIGHT (g) BEFORE ADMINISTRATION: 44.0 ± 0.9 g
  BODY WEIGHT (g) DIFFERENCE: -1.8 ± 0.5 g
  BODY WEIGHT (g) TWO WEEKS: 42.2 ± 1.6 g
  LIVER TRIGLYCERIDE: 70 ± 11 mg/g
Rats dosed cholic acid
  BILE ACID REDUCTION RATE (%) IN RAT MODEL WITH CHOLIC ACID LOADING: 35%
[3]
  ALT: 197 ± 45 IU/L
  AST: 198 ± 65 IU/L
  ALP: 1005 ± 102 IU/L
